# Reference: patent US9636289B2, “Composition for preventing or treating hair loss or promoting hair growth comprising secoiridoid glucoside derivatives” (priority 2012, dated 2017)
# Entries after “also recorded” stand apart in the source; their conditions may differ.
# Assays:
# hair follicles = assay: Histological analysis of the back skin (hair growth cycle, hair follicles); assay type: in vivo, mouse; conditions: for Anagen ratio / anagen phases observed (number of cases): 4 animals per group
# From the text: At 6 weeks after subcutaneous injection, mice were sacrificed. Their back skin tissue samples were isolated using scissors and forceps and fixed by formalin. After dehydration with serial alcohol and xylene, the tissues were paraffinized. Paraffinized tissues were sectioned using a microtomb in a thickness of 5 μm and used alcohol and xylene to remove paraffin. Then, the tissues were stained with hematoxyline/eosin, followed by observation of histological changes in hair follicles under an optical microscope. The hair growth cycles in the tissues were pathologically diagnosed by specialists, and quantity and diameter of hair follicle were measured under an optical microscope.
# [1] = Measurement on changes in body weight; assay type: in vivo, mouse; conditions: initial body weights and at 6 weeks; vs negative control group (Con)
# Experimental: 12 of 6-week-old male C57BL/6N mice (Orientbio) were adapted to the environment for 2 weeks. Then, they were divided into total 3 groups, the negative control group (Con), the positive control group (MXD) and oleuropein group (Ole), and used for test. The environment for animals were maintained at 21±2.0° C. and relative humidity 50±5% under 12 hours light/dark cycle. They were fed a food (chow) and water with free access.
# In order to verify an effect for promoting hair growth, 8-week-old mice in telogen were used for test. Hairs of their back were removed using a clipper for mouse. They were subcutaneously injected with 0.1 mL of sample at the part, everyday. Before subcutaneous injection, the test substance oleuropein (0.8 mg/0.1 mL) and the control drug minoxidil were dissolved in corn oil to use. The negative control group was subcutaneously injected with only vehicle (corn oil). The application was performed once, every P.M. 4:00 for 6 weeks. […] To assess level of hair growth, the hair length was measured using ruler.
# Body weight was measured weekly during entire test period, from the point before the subcutaneous injection of the hair restorers to the end point of the subcutaneous injection of the hair restorers.
# Wnt10b = assay: RT-PCR gene expression in back skin tissue, Wnt10b; assay type: in vivo, mouse; conditions: 6 weeks s.c., compared to the negative control group
# Experimental: (§1) After adding 1 mL of Trizol agent to 50-100 mg of test animal skin tissues, the mixture was homogenized and centrifuged at 12,000×g for 10 min at 4° C. The supernatant was transferred to a new tube to remove fat layer. Then, 200 μl of chloroform was added to the tube, followed by vortexing. The same procedure was repeated twice and then the supernatant was transferred to a new tube, followed by addition of isopropanol and the supernatant at 1:1 ratio. The mixture was vigorously shaken 10 times and then incubated for 10 min at room temperature, followed by centrifugation at 12,000×g for 10 min at 4° C. to remove the supernatant. After adding 1 mL of 70% ethanol to the remaining pellet, it was centrifuged at 7,500×g for 5 min at 4° C. After removing the ethanol, the RNA pellet contained in the tube was dried for 5 min at 4° C. and dissolved in nuclease-free water. The RNA sample concentration was measured at a wavelength of 260 nm and 280 nm using a UV/VIS spectrophotometer (Beckman coulter, DU730) and the integrity of RNA sample was verified by agarose gel electrophoresis.
# (§2) The RNA sample obtained was trasnscribed using oligo dT primer and SuperScript reverse transcriptase (GIBCO BRL, Gaithersburg, Md., USA) to synthesize cDNA. The PCR amplification was performed using the cDNA as templates and primers complementary to cDNA 5′ and 3′ flanking sequence. […]
# [2] = system: IGF1 (insulin-like growth factor 1); assay: RT-PCR gene expression in back skin tissue, IGF1; assay type: in vivo, mouse; conditions: 6 weeks s.c., compared to the negative control group, FIG. 5
# Experimental: as §1, §2
# [3] = system: KGF (keratocyte growth factor); assay: RT-PCR gene expression in back skin tissue, KGF; assay type: in vivo, mouse; conditions: 6 weeks s.c., compared to the negative control group, FIG. 5
# Experimental: as §1, §2
# Axin = assay: RT-PCR gene expression in back skin tissue, Axin; assay type: in vivo, mouse; conditions: 6 weeks s.c., compared to the negative control group
# Experimental: as §1, §2
# [4] = system: LRP5 (low-density lipoprotein receptor-related protein 5); assay: RT-PCR gene expression in back skin tissue, LRP5; assay type: in vivo, mouse; conditions: 6 weeks s.c., compared to the negative control group
# Experimental: as §1, §2
# [5] = system: GSK3β (glycogen synthase kinase 3β); assay: RT-PCR gene expression in back skin tissue, GSK3β; assay type: in vivo, mouse; conditions: 6 weeks s.c., compared to the negative control group
# Experimental: as §1, §2
# [6] = cited from earlier work
# β-catenin [7] = assay: Immunohistochemical test on skin tissue, β-catenin; assay type: in vivo, mouse; conditions: 6 weeks s.c., FIG. 4
# Experimental: (§3) In order to verify expression amounts of IGF1 and β-catenin related with hair growth in skin tissue, each primary antibody to IGF1 and β-catenin was diluted to 1:50, added to tissue sections, and incubated for 12 hours at room temperature. The primary antibody was diluted with the mixture of 0.1% normal goat serum (Vector Laboratories Inc.) and 0.3% Triton X-100 (Sigma) in 0.1 M phosphate buffer solution (PB). The tissue sections were washed twice at room temperature for 15 minutes in 0.1M PB. Then, secondary antibody [biotinylated anti-rabbit IgG (Vector Laboratories Inc.)] was diluted to 1:200, added to the tissue sections, and incubated for 1 hour at room temperature. The tissue sections were washed twice at room temperature for 15 minutes in 0.1M PB, soaked in peroxidase-labeled ABC solution, and incubated for 1 hour at room temperature. The tissue sections were washed twice at room temperature for 15 minutes in 0.1M PB. Then, the tissue sections were reacted for 5 min with a solution in which 30 mg of 3-3′ diaminobenzidine was dissolved in 150 ml of 0.1M PB, added with concentration of 0.005% of hydrogen peroxide, and reacted for 5 min to occur color reaction. The tissue sections were washed several times at room temperature in 0.1M PB. […]
# [8] = system: FZDR (frizzled receptor 1); assay: RT-PCR gene expression in back skin tissue, FZDR; assay type: in vivo, mouse; conditions: 6 weeks s.c., compared to the negative control group
# Experimental: as §1, §2
# C57BL/6N mice = assay: Hair re-growth in hair-removed telogen mice, subcutaneous injection for 6 weeks (visual observation, hair length); assay type: in vivo, mouse; conditions: for hair growth state (visual): s.c. 0.8 mg/0.1 mL in corn oil daily
# [9] = system: VEGF (vascular endothelial growth factor); assay: RT-PCR gene expression in back skin tissue, VEGF; assay type: in vivo, mouse; conditions: 6 weeks s.c., compared to the negative control group, FIG. 5
# Experimental: as §1, §2
# IGF1 = assay: Immunohistochemical test on skin tissue, IGF1; assay type: in vivo, mouse; conditions: 6 weeks s.c., FIG. 4
# Experimental: as §3
# β-catenin [10] = assay: RT-PCR gene expression in back skin tissue, β-catenin; assay type: in vivo, mouse; conditions: 6 weeks s.c., compared to the negative control group
# Experimental: as §1, §2
# [11] = system: HGF (hepatocyte growth factor); assay: RT-PCR gene expression in back skin tissue, HGF; assay type: in vivo, mouse; conditions: 6 weeks s.c., compared to the negative control group, FIG. 5
# Experimental: as §1, §2
smiles,measurement,setting,value
"Nc1cc(N2CCCCC2)nc(N)[n+]1[O-] [minoxidil, reference compound]",Anagen ratio,hair follicles; back skin at 6 weeks,25%
same,anagen phases observed (number of cases),hair follicles; back skin at 6 weeks,1 case
same,"body weight, difference between groups",[1],no significant differences
C/C=C1/[C@H](O[C@@H]2O[C@H](CO)[C@@H](O)[C@H](O)[C@H]2O)OC=C(C(=O)OC)[C@H]1CC(=O)OCCc1ccc(O)c(O)c1 [oleuropein],gene expression level of Wnt10b,Wnt10b,significantly increased
same,gene expression level of IGF1,[2],significantly increased
same,gene expression level of KGF,[3],significantly increased
same,gene expression level of Axin,Axin,significantly decreased
same,gene expression level of LRP5,[4],significantly increased
same,gene expression level of GSK3β,[5],significantly decreased
same,toxicity,[6]; mouse treated with 1 g/kg (body weight) for 7 days,no toxicity
same,LD50,[6]; through various experiments,may not be calculated
same,effect for increasing protein expression level of β-catenin compared with minoxidil,β-catenin [7],more excellent effect
same,protein expression level of β-catenin,β-catenin [7]; vs the negative group,much more highly detected
same,gene expression level of FZDR (frizzled receptor 1),[8],significantly increased
same,effect for promoting hair growth (visual) compared with minoxidil,"C57BL/6N mice; 6 weeks s.c. injection, FIG. 1",more excellent effect for promoting hair growth than that of the minoxidil
same,effect for stimulating hair growth (hair length) compared with minoxidil,"C57BL/6N mice; 6 weeks s.c. injection, FIG. 2",excellent effect for stimulating hair growth than that of the minoxidil
same,hair length,"C57BL/6N mice; at 3 weeks, p<0.05",significantly increased
same,hair growth state (visual),C57BL/6N mice; at 3 weeks,hairs were grown
same,"hair length, increase compared to the negative control group",C57BL/6N mice; at 6 weeks,62%
same,hair growth state (visual),C57BL/6N mice; at 6 weeks,hairs were vigorously grown
same,gene expression level of VEGF,[9],significantly increased
same,effect for increasing protein expression level of IGF1 compared with minoxidil,IGF1,more excellent effect
same,protein expression level of IGF1,IGF1; vs the negative group,much more highly detected
same,gene expression level of β-catenin,β-catenin [10],significantly increased
same,hair follicle length / appearance,hair follicles; back skin at 6 weeks,became longer and they were expressed into skin
same,"Histological diagnosis of hair growth cycle, individual animals (Animal ID 1-4)",hair follicles; back skin at 6 weeks after s.c. injection,Telogen; also recorded: Anagen
same,Anagen ratio,hair follicles; back skin at 6 weeks,50%
same,anagen phases observed (number of cases),hair follicles; back skin at 6 weeks,2 case
same,diameter of the hair follicles,"hair follicles; image analysis, compared to the negative control group",significantly increased
same,number of hair follicles,"hair follicles; optical microscope 40× magnification, compared to the negative control group, FIG. 3",significantly increased
same,gene expression level of HGF,[11],significantly increased
